The record followed here is patent publication US20230197192A1, “SELECTING NEOANTIGENS FOR PERSONALIZED CANCER VACCINE” (AMAZON TECHNOLOGIES, INC., priority 2020, published 2023).

Each structure is given as a SMILES string. Where a SMILES comes first, the peptide text is derived from it.

The data set can be described thus: Visible dissolution of peptides in DMSO / 0.9% NaCl for pool formulation. Type of data set: physicochemical. As to conditions: for Solubility: appearance of the solution; for Visual solubility (appearance of the peptide solution): Peptide Synthesis Engineering Run Batch for Sample GGGGG, visual appearance of the peptide solution (Clear / Semi Cloudy / Cloudy). How it is done:
Groups of peptides are selected and pooled. Up to four (4) pools with not more than (NMT) five (5) peptides in each pool were prepared. Each peptide was dissolved in 5.538% (v/v) DMSO followed by 0.9% NaCl solution, at a concentration of each peptide at 0.4158 mg/mL. Peptides which were visibly dissolved were accepted for that group's pool. Upon successful pooling of all peptides within a group, the pool was filtered through a 0.2 μm Nylon filter. Peptides were shipped in sterile tubes and labeled with Pool name, lot #, components, manufacturing data, quantity/concentration and storage conditions.

Setting [1] is: Peptide synthesis engineering run batch for sample FFFFF.

In the case of `CC(C)C[C@H](NC(=O)[C@@H](NC(=O)[C@H](Cc1c[nH]c2ccccc12)NC(=O)[C@H](C)NC(=O)[C@H](C)NC(=O)[C@@H](NC(=O)[C@H](Cc1ccccc1)NC(=O)[C@H](CCCCN)NC(=O)[C@H](C)N)C(C)C)[C@@H](C)O)C(=O)N[C@@H](CCCCN)C(=O)N[C@@H](C)C(=O)N[C@@H](C)C(=O)N[C@@H](C)C(=O)O` [DDDDD.46], the Solubility entry (Peptide synthesis engineering run batch for sample DDDDD_2020) was “Clear”.

`CC(C)C[C@H](NC(=O)[C@H](CS)NC(=O)[C@H](CS)NC(=O)[C@H](CCC(=O)O)NC(=O)[C@H](Cc1c[nH]c2ccccc12)NC(=O)[C@H](Cc1ccccc1)NC(=O)[C@H](CCC(N)=O)NC(=O)[C@H](C)NC(=O)[C@@H](N)CC(C)C)C(=O)O` [FFFFF.38] (H-LAQFWECCL-OH; N-terminus and C-terminus assumed): the Solubility entry under setting [1] is on record as “Cloudy”.

With `CC(C)C[C@H](NC(=O)[C@H](CS)NC(=O)[C@H](CS)NC(=O)[C@H](CCC(=O)O)NC(=O)[C@H](Cc1c[nH]c2ccccc12)NC(=O)[C@H](Cc1ccccc1)NC(=O)[C@H](CCC(N)=O)NC(=O)[C@H](C)N)C(=O)O` [FFFFF.41] (H-AQFWECCL-OH; N-terminus and C-terminus assumed), the Solubility result under setting [1] is recorded as “Cloudy”.

`CC(C)C[C@H](NC(=O)[C@@H](NC(=O)[C@H](Cc1c[nH]c2ccccc12)NC(=O)[C@H](C)NC(=O)[C@H](C)NC(=O)[C@@H](NC(=O)[C@H](Cc1ccccc1)NC(=O)[C@H](CCCCN)NC(=O)[C@H](C)N)C(C)C)[C@@H](C)O)C(=O)N[C@@H](CCCCN)C(=O)N[C@@H](C)C(=O)N[C@@H](C)C(=O)N[C@@H](C)C(=O)O` [FFFFF.51]: the Solubility entry under setting [1] was “Clear”.

For the compound `CC[C@H](C)[C@H](NC(=O)[C@H](C)NC(=O)CNC(=O)[C@H](CC(C)C)NC(=O)[C@H](CC(C)C)NC(=O)[C@H](CC(=O)O)NC(=O)[C@H](CS)NC(=O)[C@H](CO)NC(=O)[C@H](CCC(=O)O)NC(=O)[C@H](C)NC(=O)[C@@H]1CCCN1C(=O)[C@@H](N)CO)C(=O)N[C@@H](CCC(N)=O)C(=O)N[C@H](C(=O)N[C@@H](CS)C(=O)N[C@H](C(=O)N[C@@H](CCCNC(=N)N)C(=O)N[C@@H](CCCCN)C(=O)N[C@@H](CO)C(=O)N[C@@H](CC(C)C)C(=O)NCC(=O)O)[C@@H](C)CC)[C@@H](C)O` [GGGGG.11] (H-SPAESCDLLGAIQTCIRKSLG-OH; N-terminus and C-terminus assumed), the “Visual solubility (appearance of the peptide solution)” value was “Clear”.

For `CSCC[C@H](NC(=O)[C@H](CC(C)C)NC(=O)[C@@H](NC(=O)[C@H](CCSC)NC(=O)[C@H](CC(C)C)NC(=O)[C@@H]1CCCN1C(=O)[C@H](C)NC(=O)[C@H](Cc1ccc(O)cc1)NC(=O)[C@@H]1CCCN1C(=O)[C@H](CC(=O)O)NC(=O)CNC(=O)[C@@H](NC(=O)CNC(=O)CNC(=O)[C@H](CC(C)C)NC(=O)CNC(=O)[C@H](CO)NC(=O)[C@H](Cc1ccc(O)cc1)NC(=O)[C@@H]1CCCN1)C(C)C)C(C)C)C(=O)N[C@@H](CS)C(=O)N[C@@H](CCCNC(=N)N)C(=O)N[C@H](C(=O)N[C@@H](CS)C(=O)N[C@@H](CC(C)C)C(=O)N[C@@H](CCC(=O)O)C(=O)N[C@@H](CC(=O)O)C(=O)O)C(C)C` [GGGGG.17] (H-PYSGLGGVGDPYAPLMVLMCRVCLED-OH; N-terminus and C-terminus assumed), the Stability result is given as “Semi”.

On to `CC[C@H](C)[C@H](NC(=O)[C@H](CO)NC(=O)[C@H](CC(=O)O)NC(=O)[C@H](CCC(=O)O)NC(=O)[C@H](C)NC(=O)CN)C(=O)N[C@@H](CC(=O)O)C(=O)N[C@@H](CO)C(=O)N1CCC[C@H]1C(=O)N[C@@H](CO)C(=O)N[C@@H](C)C(=O)N[C@@H](CS)C(=O)N1CCC[C@H]1C(=O)N[C@@H](CC(C)C)C(=O)N[C@@H](CO)C(=O)N[C@H](C(=O)NCC(=O)N[C@@H](CS)C(=O)N1CCC[C@H]1C(=O)N[C@@H](C)C(=O)N[C@@H](CC(C)C)C(=O)O)[C@@H](C)O` [GGGGG.21] (H-GAEDSIDSPSACPLSTGCPAL-OH; N-terminus and C-terminus assumed), for which the “Visual solubility (appearance of the peptide solution)” value was “Clear”.
